Laboratory results reported in patent US9481669B2, “Pladienolide pyridine compounds and methods of use” (Eisai R&D Management Co., Ltd., priority 2014, dated 2016).

What was measured:
[1] = pH stability measurement (UPLC, 0.1 N HCl); assay type: physicochemical; details: buffer, 24 h, 148 µM, pH 1
Method: Compounds were provided in 96-well plates and tested in triplicate. Four microliters of a 10 mM stock solution of compound in DMSO were distributed into each of three wells. The plate was stored at or below −20° C. until the day of the analysis. Methanol (HPLC grade) and 0.1 N HCl (EMD catalog HX0603A-6) were used for dilutions. Acetonitrile (HPLC grade), water (Milli-Q filtered), trifluoroacetic acid (spectral grade) and 0.2M phosphate buffer (Wako, catalog no. 163-14471) were used to prepare the mobile phase for the two analyses.
Stability data was obtained using a Waters Acquity UPLC equipped with a UV detector (Waters TUV) and single quadrupole MS detector (Waters SQD). The 96-well plate containing the compound(s) of interest was(were) removed from the freezer and allowed to warm to room temperature for one hour. The UPLC was primed, equilibrated and the system performance was verified by injecting a standard. After 1 hour, each of the three wells was diluted with 266 μL 0.1 N HCl to give pH=1. The plate was covered and placed on a shaker (Eppindorf Thermomixer R) for 45 minutes at 600 rpm. The plate was removed from the shaker, and the contents of each well were filtered through a filtration plate (Millipore catalog no. MSSLBPC50) by vacuum and injected into the UPLC. After approximately 24 hours, the contents of the wells were re-injected into the UPLC.
Stability in the various buffers was measured by comparing the peak area- % of the analyte in methanol versus the peak area- % of the analyte at the same retention time in 0.1 N HCl buffer in the 24 hr time point injection.

[2] = patients; administered as intravenous infusion; cited from earlier work
[3] = test system: WiDr-R cells (colon cancer cells, SF3B1 R1074H mutation); details: cited from earlier work
[4] = test system: reporter gene controlled by human VEGF promoter; details: read-out: IC50, VEGF-promoted gene expression; cited from earlier work
[5] = test system: U251 human glioma cells; details: U251 human glioma cells in vitro; read-out: IC50, glioma cell proliferation; cited from earlier work

| Compound | % parent remaining (pH = 1, 24 hours) [1] [%] | oral bioavailability [2] | resistance of WiDr-R cells in terms of growth inhibition [3] | IC50 [4] [nM] | IC50 [5] [nM] |
| --- | --- | --- | --- | --- | --- |
| CCC(O)C(C)C1OC1CC(C)(O)/C=C/C=C(\C)C1OC(=O)CC(O)CCC(C)(O)C(OC(=O)N2CCN(C3CCCCCC3)CC2)/C=C/C1C (centres unmarked) [Compound E7107, (8E,12E,14E)-7-((4-Cycloheptylpiperazin-1-yl)carbonyl)oxy-3,6,16,21-tetrahydroxy-6,10,12,16,20-pentamethyl-18,19-epoxytricosa-8,12,14-trien-11-olide, reference compound] | 44 | insufficient oral bioavailability |  |  |  |
| Pladienolide B |  |  | resistant to pladienolide B in terms of growth inhibition | 1.8 | 3.5 |
